Results on ten molecules are retold here after ChEMBL document CHEMBL5316371, “Paraconulones A-G: Eremophilane Sesquiterpenoids from the Marine-Derived Fungus Paraconiothyrium sporulosum DL-16” (J Nat Prod, 2023).

The structures appear in SMILES notation.

A short description of data set [1]: Cytotoxicity against mouse BV-2 cells assessed as reduction in cell growth. Format: toxicity, cell-based.
The next data set has as its system BV-2. In words: Antiinflammatory activity against mouse BV-2 cells assessed as reduction in LPS-induced NO production incubated for 24 hrs by Griess reagent based assay. Format: functional, cell-based. Particulars: BV-2, 24 h. For orientation: The Griess reaction detects nitrite, a stable product of nitric oxide.

For `C=C(C)[C@]1(O)C[C@@]2(C)C(=C[C@H]1O)C=CC(=O)[C@@H]2C`, in data set [1], the CC50 was more than 50 µM. In addition, the IC50 in the data set with BV-2 worked out at 98 µM.

Take `C[C@H](CO)C1=C[C@@]2(C)C(=CC1=O)C=CC(=O)[C@H]2C`: the CC50 in data set [1] is more than 50 µM. For the same molecule, the IC50 in the data set with BV-2 was 40 µM.

For `CO[C@]12C=C3C=CC(=O)[C@H](C)[C@@]3(C)C[C@@]1(O)[C@H](C)CO2`, the CC50 in data set [1] was more than 50 µM. The IC50 with BV-2 is 4.6 µM.

For `CC(=O)OC[C@@H](C)[C@]1(O)C[C@@]2(C)C(=CC1=O)[C@@H]1[C@H](C(=O)[C@@H]2C)[C@H]2C(=O)[C@H](C)[C@@]3(C)C[C@@](O)([C@H](C)COC(C)=O)C(=O)C=C3[C@H]21`, in data set [1], the CC50 was more than 50 µM. In the data set on BV-2, the IC50 is 2.8 µM.

`CO[C@]12C=C3C=C(C4=CC5=C[C@]6(OC)OC[C@@H](C)[C@]6(O)C[C@]5(C)[C@@H](C)C4=O)C(=O)[C@@H](C)[C@@]3(C)C[C@@]1(O)[C@H](C)CO2`: the CC50 in data set [1] is more than 50 µM. The IC50 in the data set with BV-2 was 6.9 µM.

As for `CC(=O)OC[C@@H](C)[C@]1(O)C[C@@]2(C)C(=CC1=O)C=CC(=O)[C@H]2C`, the CC50 in data set [1] is more than 50 µM. The half-inhibitory concentration (IC50) with BV-2 is 7.7 µM.

For the molecule `CC1=C(C)[C@]2(C=CC1=O)C[C@@]1(O)[C@H](C)CO[C@@]1(O)C2`, the CC50 in data set [1] is more than 50 µM. Moreover, in the data set on BV-2, the IC50 stood at 8.1 µM.

Turning to `C[C@H](CO)[C@@H]1C[C@@]2(C)C(=CC1=O)C=CC(=O)[C@H]2C`, the CC50 in data set [1] is more than 50 µM. Also, the IC50 in the data set on BV-2 is 8.1 µM.

For the molecule `COc1cc(/C=C/C(=O)CC(=O)/C=C/c2ccc(O)c(OC)c2)ccc1O` [CURCUMIN], in data set [1], the CC50 was more than 50 µM. Further, the IC50 with BV-2 was found to be 8.6 µM.

On to `CO[C@]12C=C3C=CC(=O)[C@@H](C)[C@@]3(C)C[C@@]1(O)[C@H](C)CO2` [MICROSPHAEROPSISIN], for which the CC50 in data set [1] is more than 50 µM. Further, in the data set on BV-2, the IC50 amounted to 80 µM.

What is called CC50 is the concentration giving 50% cytotoxicity. The term IC50 denotes the concentration that gives 50% inhibition.
